# Reference: patent publication US10675286B2, “Heterocyclic compounds and uses thereof” (Infinity Pharmaceuticals, Inc., priority 2014, dated 2020)
# “Also recorded” adds a separate entry of the source. Like-named read-outs stand apart in the source and are kept apart here.
# Key:
# [1] = In vitro toxicology studies
# [2] = tested on: CXCL12 induced p-AKT in bone marrow derived macrophages; experiment: CXCL12-induced p-AKT induction assay in differentiated, polarized macrophages; type: cell-based, mouse; details: Mus musculus, Macrophage
# Excerpt: Long bones from young C57B6 mice were harvested and bone marrow was extruded by gentle lavage of the bone marrow cavities with a 28 gauge needle. Red blood cells were removed using red blood cell lysis buffer (Sigma). Bone marrow cells were differentiated to macrophages using MCSF for 6 days (RPMI and 20% FCS) with one media change (with removal of all non-adherent cells) at day 3. Macrophages were polarized into M0 (MCSF), M1 (MCSF, IFNγ, and LPS for 1 day), or M2 (MCSF, IL4 for 2 days).
# Polarized macrophages were lifted with Acutase, and plated at 0.5M cells per well (0.5 ml) in a deep well (2 ml) non adherant plate in polarization media for 1 hour. […] CXCL12 was added, and the cells were mixed on a plate shaker for 2 minutes. 1 ml of 37 degree FACS Lyse/fix buffer (BD bioscience) was added and the plate was mixed for 1 minute. The plates were spun and decanted and frozen at −80° C. Phospho AKT staining with anti Phospho AKT 473 PERCP labeled (Cell Signaling Technologies) was performed and measured by flow cytometry. Total cell MFI was used to calculate the effect of tested compound on CXCL12 induction of phospho AKT.
# [3] = tested on: IL-8 induced neutrophil migration; experiment: IL-8 driven murine air pouch model; type: in vivo; details: mouse; Compound BB 0.1, 0.3, 1, 3 mg/kg; Compound AA 10, 25, about 50 mg/kg; vs vehicle
# Excerpt: IL-8 chemoattracts and activates neutrophils.
# [4] = Target organ toxicity (TOT) study in rats, 10 days oral; type: in vivo
# Procedure: A target organ toxicity (TOT) study was performed in rats. […] This study assessed clinical observations/mortality, body weights, clinical pathology, toxicokinetics, and histopathology of select tissues. The tissues studied were: Adrenal gland, Bone marrow (femur), Brain, Small Intestine (including GALT), Heart, Large Intestine, Kidney, Stomach, Liver, Pancreas, Spleen, Testis, and Thymus. Doses were selected based on repeat-dose tolerability study, PK and plasma protein binding, and cellular IC50s for PI3K isoforms.
# [5] = tested on: T cell activation (IFN-γ in response to ConA); experiment: T cell activation in human whole blood (Con-A, IFN-γ readout); type: cell-based; details: 24 hours, read-out: IC50, T cell activation as measured by inhibition of IFN-γ
# Procedure: The purpose of this study is to evaluate the effect of various antigens (Con-A) in T cell activation in Human Whole Blood vs. 1:1 Diluted Blood using test compounds at 24 hour time-point.
# T-cell Activation Media includes RPMI-1000 ml, MEM NEAA-10 ml, Sodium Pyruvate (100 mM)-10 ml, Pen Strep-10 ml, 2-Mercaptoethanol-1 ml, and FBS-100 ml. 100 ul of whole blood were plated in 96 well plate. Used only the 60 inside wells and filled the outside with media or PBS. Diluted human whole blood with 5% Serum RPMI 1640 1:1 and plate 100 ul in 96 well plate. Used only the 60 inside wells and filled the outside with media or PBS.
# The compound was diluted using DMSO (Sigma hybridmax). For 1000 nM highest concentration starting from a 10 mM stock, added 300 ul of DMSO into deep well plates. To the highest concentration add 10 ul of 10 mM compound stock.
# A media plate was prepared from DMSO plate by taking 100 ul and go into 900 ul media in new deep well plate, taping plate, and putting on mixer for 5 minutes.
# The rested cell plates were removed from incubator. Added 12 uL of diluted compound from media plate (final DMSO is 1%), and incubated for 45 minutes.
# Con-A was prepared as follows: 200 ul stock into 1 ml Media, 100 ul of that into 1 ml Media, 100 ul of that into 1 ml Media. […] This was analyzed after 24 Hours.
# 10× stock in media, added 12 ul per well. […] Analyzed with multiplex elisa from MSD. […]
# [6] = tested on: M2 macrophage markers; experiment: M2 macrophage marker expression with or without PDL-1 antibody (FIG. 42); type: in vivo
# [7] = tested on: T cell proliferation suppressed by CT26 tumor cells; experiment: Ex vivo T cell proliferation (CFSE) with cells of CT26 tumors; type: cell-based, mouse; details: vs tumor cells from vehicle treated mice
# Procedure: CT26 was an N-nitroso-N-methylurethane-(NNMU)induced, undifferentiated colon carcinoma cell line. It was cloned to generate the cell line designated CT26.WT (ATCC CRL-2638).
# The duration of the study was 1 week under treatment. 5-6 week old female, Balb/c mice (Jackson Labs) implanted subcutaneously with 5×10^5CT26 cells in 100 μl PBS. CT26 cells were cultured in RPMI supplemented with 10% FBS. Dosing commenced when tumors reached an average volume of 500-600 mm^3.
# For group 3 (αPD-L1), the mice were dosed once, IP, 200 ug (200 uL from 1 mg/ml stock).
# Mice were monitored daily for adverse clinical effects. Body weights and tumor luminescent were measured two times per week. At the end of the study, tumors were harvested and cut into 3 parts; one piece for CTL killing assay, one piece for CSFE proliferation assay and one piece (split into two) for OCT/FFPE.
# Spleens from 3 vehicle treated tumor bearing mice were physically dissociated in T cell media and passed through a 70 micron filter. After red cell lysis, the cells were pooled, brought up in PBS and stained with CFSE (invitrogen). After washing, these cells were brought up in 20 ml T cell media. Half the cells received Dynal mouse activator beads (CD3/CD28 crosslinking at a 1:1 concentration). CD3/CD28 beads induce proliferation in splenocytes from tumor bearing mouse (data not shown). […]
smiles,measurement,setting,value
C[C@H](NC(=O)c1c(N)nn2cccnc12)c1cc2cccc(C#Cc3cnn(C)c3)c2c(=O)n1-c1ccccc1 [Compound BB],In vitro toxicology,[1],expected to have very low toxicity
same,IC50,"[2]; read-out: IC50, CXCL12 induced p-AKT, differentiated and M1 polarized macrophage",~14 nM
same,IC50,"[2]; read-out: IC50, CXCL12 induced p-AKT, differentiated and M2 polarized macrophage",~8.4 nM
same,IL-8 induced neutrophil migration into air pouch,[3],blocks IL-8 induced neutrophil migration
same,"Histopathology, gross changes",[4]; 10 days,no significant gross changes were observed
same,Decrease in body weights compared to vehicle,"[4]; high dose (50 mg/kg/day), 10 days",5-8%
same,"Histopathology, thymus","[4]; males at ≥7.5 mg/kg/day, females at 50 mg/kg/day",minimal/mild lymphoid depletion
same,Mortality and clinical signs,"[4]; oral 10 days, any dose level",No mortality or clinical signs were observed
same,Tolerability,"[4]; oral, 1, 7.5, 20, 50 mg/kg/day",well-tolerated for 10 days
same,"Histopathology, spleen",[4]; primarily at doses ≥20 mg/kg/day,minimal/mild lymphoid depletion of the marginal zone and periarteriolar lymphoid sheaths (PALS)
same,Clinical pathology,[4]; primarily in 20 and 50 mg/kg/day groups,"minimal changes in neutrophils, lymphocytes, and fibrinogen"
same,IC50,[5],2500 nM
same,M2 macrophage marker ARG-1,[6],reduced
same,M2 macrophage marker VEGF,[6],reduced
same,"Inhibition of spleen T cell proliferation by tumor cells of treated mice (FIGS. 55, 56)",[7],less inhibitory of spleen T cell proliferation; also recorded: can release the suppression
